According to US11040035B2, “3-oxo-2,6-diphenyl-2,3-dihydropyridazine-4-carboxamides” (BAYER PHARMA AKTIENGESELLSCHAFT, priority 2016, dated 2021):
Where two headings read alike, the source gives them in different places.

Assays:
AHR [1] = biological target: T1, AHR (Homo sapiens, UniProt P35869); experiment: In vitro assay 1: antagonism in human cell line (transactivation assay, kynurenic acid prestimulated); conditions: Assay 1: AHR-luc Hum Antagonism IC50 [M], 150 μM kynurenic acid, 20 hours, firefly luciferase
T1 sequence (P35869 11-848): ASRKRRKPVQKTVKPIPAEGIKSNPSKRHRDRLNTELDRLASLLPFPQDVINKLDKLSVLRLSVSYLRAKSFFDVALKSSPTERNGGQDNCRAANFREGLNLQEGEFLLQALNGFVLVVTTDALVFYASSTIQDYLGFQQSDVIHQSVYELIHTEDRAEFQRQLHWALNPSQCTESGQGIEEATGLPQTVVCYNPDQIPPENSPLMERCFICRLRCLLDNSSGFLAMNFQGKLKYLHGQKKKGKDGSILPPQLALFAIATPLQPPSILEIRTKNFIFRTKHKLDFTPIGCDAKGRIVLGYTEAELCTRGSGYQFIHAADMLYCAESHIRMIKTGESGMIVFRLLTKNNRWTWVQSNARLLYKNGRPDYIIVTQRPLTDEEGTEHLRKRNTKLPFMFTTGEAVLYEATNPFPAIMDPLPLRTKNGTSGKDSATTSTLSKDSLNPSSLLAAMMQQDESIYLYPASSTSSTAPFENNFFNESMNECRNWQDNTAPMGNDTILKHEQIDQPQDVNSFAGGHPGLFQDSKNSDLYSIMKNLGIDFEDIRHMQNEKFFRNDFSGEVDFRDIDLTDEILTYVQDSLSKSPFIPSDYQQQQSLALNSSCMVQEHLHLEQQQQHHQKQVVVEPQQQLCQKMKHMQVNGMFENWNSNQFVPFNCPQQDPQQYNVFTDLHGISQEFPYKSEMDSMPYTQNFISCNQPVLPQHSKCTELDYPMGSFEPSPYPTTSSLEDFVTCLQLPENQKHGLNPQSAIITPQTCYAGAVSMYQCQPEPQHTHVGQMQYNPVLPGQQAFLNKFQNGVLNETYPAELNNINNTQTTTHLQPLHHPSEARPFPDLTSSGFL

[2] = test system: AHR-regulated gene CYP1A1; experiment: In vitro assay 3: AHR-regulated CYP1A1 expression in human cell line (U937, qPCR)
AHR [3] = biological target: T1, AHR; experiment: In vitro assay 2: agonism in human cell line (transactivation assay)
Method: Transactivation Assay in Human Cell Line (In Vitro Assays 1 and 2)
Transactivation assays were carried out in U87 glioblastoma cells (ATCC) endogenously expressing AHR. In addition the cells were stably transfected with an AHR inducible firefly luciferase reporter gene construct that carried AHR-binding sites (DRE) in its promoter and a renilla reporter gene construct with constitutively active promoter.
In Vitro Assay 2: Agonism in Human Cell Line
Cells in medium (tryptophan free RPMI, 1% FCS, 2 mM Glutamine) were grown for 20 hours in absence (negative control) or presence of increasing concentrations of test compounds (typical dilutions: 72 pmol/L, 0.25 nmol/L, 0.89 nmol/L; 3.1 nmol/L, 11 nmol/L, 38 nmol/L, 130 nmol/L, 470 nmol/L, 1.6 μmol/L, 5.7 μmol/L and 20 μmol/L in duplicates). As positive activation control cells were incubated with 300 μM kynurenic acid. Normalization was done by positive and negative controls.
Firefly luciferase activity was determined by the SteadyGlo Luciferase Assay System (Promega, #2520).

[4] = Homo sapiens, U-937, 6 h, read-out: Assay 3: Hum CYP1A1 Antagonism IC50 [M], U937 cells, 200 μM KA, 6 hours, qPCR
[5] = Assay 2: AHR-luc Hum Agonism IC50 [M], no kynurenic acid, 20 hours, firefly luciferase
[6] = read-out: Assay 3: Hum CYP1A1 Antagonism IC50, U937 cells, 200 μM KA, 6 hours, qPCR
[7] = read-out: Assay 2: AHR-luc Hum Agonism IC50, no kynurenic acid, 20 hours, firefly luciferase

IC50 (AHR [1]) | IC50 [2, 4] | IC50 (AHR [3]; [5]) | IC50 [2, 6] | IC50 (AHR [3]; [7]) | SMILES
3.72e-08 M | 5.44e-08 M | > 2e-05 M | – | – | CC(CO)CNC(=O)c1cc(-c2ccc(C(F)(F)F)cc2)nn(-c2cccc(F)c2)c1=O (racemic) [Example 245, 2-(3-Fluorophenyl)-N-[(2RS)-3-hydroxy-2-methylpropyl]-3-oxo-6-[4-(trifluoromethyl)phenyl]-2,3-dihydropyridazine-4-carboxamide]
8.35e-08 M | 1.71e-07 M | > 2e-05 M | – | – | CC(O)CCNC(=O)c1cc(-c2ccc(C(F)(F)F)cc2)nn(-c2cccc(F)c2)c1=O (racemic) [Example 247, 2-(3-Fluorophenyl)-N-[(3RS)-3-hydroxybutyl]-3-oxo-6-[4-(trifluoromethyl)phenyl]-2,3-dihydropyridazine-4-carboxamide]
2.89e-08 M | 3.62e-08 M | > 2e-05 M | – | – | CC(CCO)NC(=O)c1cc(-c2ccc(C(F)(F)F)cc2)nn(-c2cccc(F)c2)c1=O (racemic) [Example 253, 2-(3-Fluorophenyl)-N-[(2RS)-4-hydroxybutan-2-yl]-3-oxo-6-[4-(trifluoromethyl)phenyl]-2,3-dihydropyridazine-4-carboxamide]
5.51e-08 M | 9.15e-08 M | > 2e-05 M | – | – | O=C(NC(CO)CCO)c1cc(-c2ccc(C(F)(F)F)cc2)nn(-c2cccc(F)c2)c1=O (racemic) [Example 262, N-[(2RS)-1,4-Dihydroxybutan-2-yl]-2-(3-fluorophenyl)-3-oxo-6-[4-(trifluoromethyl)phenyl]-2,3-dihydropyridazine-4-carboxamide]
3.54e-08 M | 6.06e-08 M | > 2e-05 M | – | – | O=C(NC(CO)C1CCCO1)c1cc(-c2ccc(C(F)(F)F)cc2)nn(-c2cccc(F)c2)c1=O (racemic) [Example 263, 3,6-Anhydro-2,4,5-trideoxy-2-[({2-(3-fluorophenyl)-3-oxo-6-[4-(trifluoromethyl)phenyl]-2,3-dihydropyridazin-4-yl}carbonyl)amino]-DL-erythro-hexitol and 1,4-anhydro-2,3,5-trideoxy-5-[({2-(3-fluorophenyl)-3-oxo-6-[4-(trifluoromethyl)phenyl]-2,3-dihydropyridazin-4-yl}carbonyl)amino]-DL-threo-hexitol]
2.9e-08 M | 1.05e-08 M | > 2e-05 M | – | – | O=C(NC(CO)C1CC1)c1cc(-c2ccc(C(F)(F)F)cc2)nn(-c2cccc(F)c2)c1=O (racemic) [Example 267, N-[(1RS)-1-Cyclopropyl-2-hydroxyethyl]-2-(3-fluorophenyl)-3-oxo-6-[4-(trifluoromethyl)phenyl]-2,3-dihydropyridazine-4-carboxamide]
2.43e-08 M | 3.2e-08 M | > 2e-05 M | – | – | O=C(NC(CO)CF)c1cc(-c2ccc(Cl)cc2)nn(-c2cccc(F)c2)c1=O (racemic) [Example 323, 6-(4-chlorophenyl)-N-[(2RS)-1-fluoro-3-hydroxypropan-2-yl]-2-(3-fluorophenyl)-3-oxo-2,3-dihydropyridazine-4-carboxamide]
5.11e-08 M | 1.37e-07 M | > 2e-05 M | – | – | O=C(N[C@H]1CC[C@@H]1O)c1cc(-c2ccc(Cl)cc2)nn(-c2cccc(F)c2)c1=O (racemic) [Example 348, 6-(4-chlorophenyl)-2-(3-fluorophenyl)-N-(trans-2-hydroxycyclobutyl)-3-oxo-2,3-dihydropyridazine-4-carboxamide]
1.63e-08 M | 5.69e-08 M | > 2e-05 M | – | – | N#CC(CO)NC(=O)c1cc(-c2ccc(Cl)cc2)nn(-c2cccc(F)c2)c1=O (racemic) [Example 371, 6-(4-chlorophenyl)-N-[(1RS)-1-cyano-2-hydroxyethyl]-2-(3-fluorophenyl)-3-oxo-2,3-dihydropyridazine-4-carboxamide]
2.13e-08 M | 2.7e-08 M | > 2e-05 M | – | – | O=C(N[C@@H]1CC[C@@H]1O)c1cc(-c2ccc(Cl)cc2)nn(-c2cccc(F)c2)c1=O (relative stereo) [Example 357]

Further lines, the molecule ahead of its results:

SMILES | IC50 (AHR [1]) | IC50 [2, 4] | IC50 (AHR [3]; [5]) | IC50 [2, 6] | IC50 (AHR [3]; [7])
CC(O)C(NC(=O)c1cc(-c2ccc(Cl)cc2)nn(-c2cccc(F)c2)c1=O)C(F)(F)F (mixture of isomers) [Example 197, 6-(4-Chlorophenyl)-2-(3-fluorophenyl)-3-oxo-N-[(2RS, 3RS)-1,1,1-trifluoro-3-hydroxybutan-2-yl]-2,3-dihydropyridazine-4-carboxamide and 6-(4-Chlorophenyl)-2-(3-fluorophenyl)-3-oxo-N-[(2RS, 3SR)-1,1,1-trifluoro-3-hydroxybutan-2-yl]-2,3-dihydropyridazine-4-carboxamide] | 1.97e-08 M | 1.82e-08 M | > 2e-05 M | – | –
O=C(NC(CO)C1CCC1)c1cc(-c2ccc(Cl)cc2)nn(-c2cccc(F)c2)c1=O (racemic) [Example 209, 6-(4-Chlorophenyl)-N-[(1RS)-1-cyclobutyl-2-hydroxyethyl]-2-(3-fluorophenyl)-3-oxo-2,3-dihydropyridazine-4-carboxamide] | 3.27e-08 M | 3.21e-08 M | > 2e-05 M | – | –
O=C(N[C@@H]1CCCC[C@@H]1O)c1cc(-c2ccc(Cl)cc2)nn(-c2cccc(F)c2)c1=O (relative stereo) [Example 103, 6-(4-Chlorophenyl)-2-(3-fluorophenyl)-N-(cis-2-hydroxycyclohexyl)-3-oxo-2,3-dihydropyridazine-4-carboxamide] | 1.59e-08 M | 4.47e-09 M | > 2e-05 M | – | –
COc1ccc(-c2cc(C(=O)N[C@@H](C)[C@H](C)O)c(=O)n(-c3cccc(F)c3)n2)cc1 (relative stereo) [Example 116, rel-2-(3-Fluorophenyl)-N-[(2S,3S)-3-hydroxybutan-2-yl]-6-(4-methoxyphenyl)-3-oxo-2,3-dihydropyridazine-4-carboxamide] | 2.9e-08 M | 9.69e-08 M | > 2e-05 M | – | –
O=C(N[C@H]1CCC[C@@H]1O)c1cc(-c2ccc(Cl)cc2)nn(-c2cccc(F)c2)c1=O (relative stereo) [Example 123, 6-(4-Chlorophenyl)-2-(3-fluorophenyl)-N-(trans-2-hydroxycyclopentyl)-3-oxo-2,3-dihydropyridazine-4-carboxamide] | 3.63e-08 M | 9.77e-08 M | > 2e-05 M | – | –
O=C(NCC(O)C(F)(F)F)c1cc(-c2ccc(Cl)cc2)nn(-c2cccc(F)c2)c1=O (single isomer, unassigned) [Example 26, 6-(4-Chlorophenyl)-2-(3-fluorophenyl)-3-oxo-N-(3,3,3-trifluoro-2-hydroxypropyl)-2,3-dihydropyridazine-4-carboxamide] | 1.84e-08 M | – | > 2e-05 M | 3.52e-08 M | –
O=C(NCC(O)C(F)(F)F)c1cc(-c2ccc(Cl)cc2)nn(-c2cccc(F)c2)c1=O (single isomer, unassigned) [Example 27, 6-(4-Chlorophenyl)-2-(3-fluorophenyl)-3-oxo-N-(3,3,3-trifluoro-2-hydroxypropyl)-2,3-dihydropyridazine-4-carboxamide] | 1.06e-07 M | – | – | 2.44e-07 M | > 2e-05 M
CC(C)C(O)CNC(=O)c1cc(-c2ccc(Cl)cc2)nn(-c2cccc(F)c2)c1=O (single isomer, unassigned) [Example 29, 6-(4-Chlorophenyl)-2-(3-fluorophenyl)-N-(2-hydroxy-3-methylbutyl]-3-oxo-2,3-dihydropyridazine-4-carboxamide] | 9.15e-08 M | 1.55e-07 M | > 2e-05 M | – | –
CC(C)C(O)CNC(=O)c1cc(-c2ccc(Cl)cc2)nn(-c2cccc(F)c2)c1=O (single isomer, unassigned) [Example 30, 6-(4-Chlorophenyl)-2-(3-fluorophenyl)-N-(2-hydroxy-3-methylbutyl]-3-oxo-2,3-dihydropyridazine-4-carboxamide] | 1.33e-07 M | – | – | 1.77e-07 M | > 2e-05 M
O=C(NCC(O)C(F)(F)F)c1cc(-c2ccc(Cl)cc2)nn(-c2cc(F)cc(F)c2)c1=O (single isomer, unassigned) [Example 45, 6-(4-Chlorophenyl)-2-(3,5-difluorophenyl)-3-oxo-N-(3,3,3-trifluoro-2-hydroxypropyl)-2,3-dihydropyridazine-4-carboxamide] | 1.02e-08 M | 1.18e-08 M | > 2e-05 M | – | –
